Data from PubChem BioAssay (NCI).
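Protocol summary: plate cells (96-well), add compound at 5 concentrations, incubate 48 h, interpolate endpoints linearly. Abbreviation: GI50, concentration required for 50% inhibition of growth. At the TGI there is no net growth.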

Columns and labels:
Test in all cases: DTP human tumour cell line panel, 48 h
BT-549 breast = system: BT-549 breast
COLO 205 colon = system: COLO 205 colon
HCC-2998 colon = system: HCC-2998 colon
HT29 colon = system: HT29 colon
K-562 leukemia = system: K-562 leukemia
LOX IMVI melanoma = system: LOX IMVI melanoma
NCI-H23 lung = system: NCI-H23 lung
SF-539 CNS = system: SF-539 CNS
UACC-257 melanoma = system: UACC-257 melanoma
MDA-MB-435 = system: MDA-MB-435

Row | Structure (SMILES) | GI50 (BT-549 breast) [µM] | TGI (BT-549 breast) [µM] | GI50 (COLO 205 colon) [µM] | TGI (COLO 205 colon) [µM] | GI50 (HCC-2998 colon) [µM] | TGI (HCC-2998 colon) [µM] | GI50 (HT29 colon) [µM] | TGI (HT29 colon) [µM] | GI50 (K-562 leukemia) [µM] | TGI (K-562 leukemia) [µM] | GI50 (LOX IMVI melanoma) [µM] | TGI (LOX IMVI melanoma) [µM] | GI50 (NCI-H23 lung) [µM] | TGI (NCI-H23 lung) [µM] | GI50 (SF-539 CNS) [µM] | TGI (SF-539 CNS) [µM] | GI50 (UACC-257 melanoma) [µM] | TGI (UACC-257 melanoma) [µM] | TGI (MDA-MB-435) [µM] | GI50 (MDA-MB-435) [µM]
1 | COc1ccc(C(c2cc(OC)c(OC)c(OC)c2)n2cncn2)cc1O (stereo not given) | 0.618 | > 100 | 0.332 | 1.54 | 1.35 | > 100 | 0.33 | 1.9 | 0.427 | > 100 | 0.523 | > 100 | 0.977 | > 100 | 0.3 | 1.11 | > 100 | > 100 | – | –
2 | CN(C)C=Nc1nc(=O)n(C2CCC(CO)O2)cc1F (stereo not given) | – | – | – | > 100 | – | > 100 | – | > 100 | – | > 100 | – | > 100 | – | > 100 | – | – | – | > 100 | – | –
3 | COc1ccc2c(c1)[n+]([O-])c(C(N)=O)c(N)[n+]2[O-] | – | – | – | 46.2 | – | – | – | > 100 | – | > 100 | – | – | – | 97.7 | – | > 100 | – | 94.6 | – | –
4 | CCOC(=O)C1=C(C)N(NC(=O)Nc2ccccc2)C2(N)N(NC(=O)Nc3ccccc3)C(C)=C(C(=O)OCC)C12C(=O)OCC (stereo not given) | – | – | – | 3.25 | – | 80.8 | – | > 100 | – | > 100 | – | > 100 | – | > 100 | – | 53.4 | – | > 100 | – | –
5 | C/C(CN1C(=O)c2ccccc2C1=O)=N\NS(=O)(=O)c1ccc(Cl)cc1 | – | – | – | > 100 | – | > 100 | – | > 100 | – | > 100 | – | – | – | > 100 | – | > 100 | – | > 100 | – | –
6 | CC#Cc1ccc(-c2ccccc2)s1 | – | – | – | > 100 | – | – | – | > 100 | – | – | – | > 100 | – | > 100 | – | > 100 | – | > 100 | > 100 | –
7 | COc1ccc(/C=C/COC(C)=O)cc1OC | – | – | – | > 100 | – | > 100 | – | > 100 | – | > 100 | – | – | – | > 100 | – | > 100 | – | > 100 | – | –
8 | Cn1cc(-c2cc3c(N4CCN(c5ncc([C@@](C)(N)c6ccc(F)cc6)cn5)CC4)ncnn3c2)cn1 | 5.15 | > 100 | – | – | 4.23 | > 100 | 3.35 | > 100 | 2.49 | > 100 | 3.27 | > 100 | – | – | 1.6 | > 100 | 5 | > 100 | > 100 | 3.56
9 | O=C(/C=C/c1c(O)ccc2ccccc12)c1ccc([N+](=O)[O-])cc1 | – | – | – | > 72.5 | – | > 100 | – | > 100 | – | > 100 | – | 33.4 | – | 60.3 | – | > 90.8 | – | 74 | – | –
10 | CN(C)CC1CCCC/C1=N/O (stereo not given) | – | – | – | > 100 | – | > 100 | – | > 100 | – | > 100 | – | > 100 | – | > 100 | – | > 100 | – | > 100 | – | –
11 | NC(N)=NS(=O)(=O)c1ccc(N=Nc2c(O)c(C(=O)O)cc3ccccc23)cc1 | – | > 100 | – | > 100 | – | > 100 | – | > 100 | – | > 100 | – | – | – | > 100 | – | > 100 | – | > 100 | > 100 | –
12 | CC(=O)[O-].CC(=O)[O-].O=C(N/N=C/c1cc(Cl)cc(Cl)c1O)c1ccncc1.[Cu+2] | – | – | – | > 100 | – | > 100 | – | > 100 | – | > 100 | – | > 100 | – | > 100 | – | > 100 | – | > 100 | – | –
13 | COc1c(CC(C)=O)ccc2c1C(=O)c1ccc(C=O)c(OC(C)=O)c1C2=O | – | – | – | 31.6 | – | 24.5 | – | 37.9 | – | > 100 | – | 40.3 | – | – | – | 20.8 | – | 28.3 | – | –
14 | Cc1nnc2ccnn2c1C | > 100 | > 100 | > 100 | > 100 | 18.1 | 33.1 | – | – | > 100 | > 100 | > 100 | > 100 | – | – | – | – | – | – | > 100 | > 100
15 | N#CCCC[Si]12OCCN(CCO1)CCO2 | – | – | – | > 100 | – | > 100 | – | > 100 | – | > 100 | – | – | – | > 100 | – | > 100 | – | > 100 | – | –
16 | Cc1ccc(S(=O)(=O)N2CCC2c2ccccc2)cc1 (stereo not given) | – | – | – | > 100 | – | > 100 | – | > 100 | – | > 100 | – | > 100 | – | > 100 | – | > 100 | – | > 100 | – | –
17 | C[C@@]1(O)CC[C@]2(C)C3CCCC3[C@H]12 (stereo not given in full) | – | – | – | > 100 | – | > 100 | – | > 100 | – | > 100 | – | > 100 | – | > 100 | – | > 100 | – | > 100 | – | –
18 | C=C(C)C12OC1[C@@]1(C)C(=CC2=O)CCC(O)[C@@H]1C (stereo not given in full) | – | 50.8 | – | 6.5 | – | 17.6 | – | 3.89 | – | – | – | 16.6 | – | 16.2 | – | 15.8 | – | > 100 | 21.1 | –
19 | CC(=O)OC1(C)N=NC2(CCCCC2)O1 (stereo not given) | – | > 100 | – | > 100 | – | – | – | > 100 | – | > 100 | – | > 100 | – | > 100 | – | > 100 | – | > 100 | > 100 | –
20 | Cc1cc2c(cc1C)[n+](=O)c(C(=O)c1ccccc1)c(C(F)F)n2[O-] | 14.2 | 65.3 | 9.83 | 35.5 | 32.8 | > 100 | 17.2 | > 100 | 10.1 | > 100 | 10.3 | > 100 | 26.3 | > 100 | 18.4 | 72.5 | – | – | > 100 | 26.3
21 | C=C1C[C@H](O)[C@H](Br)C(C)(C)[C@@]12CCC(C)=C(Cl)C2 | 0.248 | 2.82 | 0.157 | 0.51 | 0.568 | 14 | 0.26 | 1.45 | 0.443 | 10.4 | 0.483 | 2.07 | 0.173 | 2.99 | 0.445 | 11.3 | – | – | 1.72 | 0.327
